# Measured values published in PubChem BioAssay (NCI).
#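 Where inhibition never reached the appropriate level, the endpoint shown equals the highest concentration tested. Otherwise, values were interpolated linearly from a five-concentration, 48-hour dose response in 96-well plates. TGI: total growth inhibition.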
# Key:
# Assay in all cases: NCI anticancer screen, dose series, 48 h
# [1] = tested on: SK-MEL-5 melanoma
# [2] = tested on: UACC-62 melanoma
# [3] = tested on: HCC-2998 colon
# [4] = tested on: CCRF-CEM leukemia
# [5] = tested on: A549 NSCLC
# [6] = tested on: UO-31 renal
# [7] = tested on: DMS 114 small cell lung
# [8] = tested on: DLD-1 colon
# [9] = tested on: LXFL 529 NSCLC
# [10] = tested on: NCI-H23 lung
# [11] = tested on: K-562 leukemia
# [12] = tested on: LOX IMVI melanoma
# [13] = tested on: CAKI-1 renal
# [14] = tested on: HOP-62 NSCLC
# [15] = tested on: OVCAR-3 ovarian
# [16] = tested on: HT29 colon
# [17] = tested on: MALME-3M melanoma
# [18] = tested on: U251 CNS
# [19] = tested on: SNB-19 CNS
# [20] = tested on: NCI-H226 lung
# [21] = tested on: NCI-H460 lung
# [22] = tested on: SF-539 CNS
# [23] = tested on: DMS 273 small cell lung
# [24] = tested on: OVCAR-8 ovarian
# [25] = tested on: M14 melanoma
# [26] = tested on: COLO 205 colon
# [27] = tested on: SR leukemia
# [28] = tested on: MOLT-4 leukemia
# [29] = tested on: SK-MEL-2 melanoma
# [30] = tested on: UACC-257 melanoma
# [31] = tested on: EKVX NSCLC
# [32] = tested on: ACHN renal
# [33] = tested on: KM12 colon
# [34] = tested on: SK-MEL-28 melanoma
# [35] = tested on: M19-MEL melanoma
# [36] = tested on: SW-620 colon
# [37] = tested on: SF-295 CNS
# [38] = tested on: A498 renal
# [39] = tested on: SK-OV-3 ovarian
# [40] = tested on: HCT-116 colon
# [41] = tested on: NCI-H522 lung
# [42] = tested on: SNB-75 CNS
# [43] = tested on: 786-0 renal
# [44] = tested on: OVCAR-4 ovarian
# [45] = tested on: HCT-15 colon
# [46] = tested on: SF-268 CNS
# [47] = tested on: SN12C renal
# [48] = tested on: TK-10 renal
# [49] = tested on: IGROV1 ovarian
# [50] = tested on: RPMI-8226 leukemia
# [51] = tested on: HOP-18 NSCLC
# [52] = tested on: KM20L2 colon
# [53] = tested on: HOP-92 NSCLC
# [54] = tested on: HL-60(TB) leukemia
# [55] = tested on: RXF 393 renal
# [56] = tested on: OVCAR-5 ovarian
# [57] = tested on: SNB-78 CNS
compound,measurement,setting,value
CCOC(=O)CC(NC(=O)c1nc[nH]c1[N+](=O)[O-])C(=O)OCC (configuration not stated),TGI,[1],> 100 µM
same,TGI,[2],> 100 µM
same,TGI,[3],> 100 µM
same,TGI,[4],> 100 µM
same,TGI,[5],> 100 µM
same,TGI,[6],> 100 µM
same,TGI,[7],> 100 µM
same,TGI,[8],> 100 µM
same,TGI,[9],> 100 µM
same,TGI,[10],49.8 µM
same,TGI,[11],> 100 µM
same,TGI,[12],> 100 µM
same,TGI,[13],> 100 µM
same,TGI,[14],> 100 µM
same,TGI,[15],> 100 µM
same,TGI,[16],> 100 µM
same,TGI,[17],> 100 µM
same,TGI,[18],36.9 µM
same,TGI,[19],> 100 µM
same,TGI,[20],72.5 µM
same,TGI,[21],> 100 µM
same,TGI,[22],> 100 µM
same,TGI,[23],> 100 µM
same,TGI,[24],> 100 µM
same,TGI,[25],> 100 µM
same,TGI,[26],> 100 µM
same,TGI,[27],> 100 µM
same,TGI,[28],> 100 µM
same,TGI,[29],> 100 µM
same,TGI,[30],> 100 µM
same,TGI,[31],> 100 µM
same,TGI,[32],> 100 µM
same,TGI,[33],> 100 µM
same,TGI,[34],> 100 µM
same,TGI,[35],> 100 µM
same,TGI,[36],> 100 µM
same,TGI,[37],> 100 µM
same,TGI,[38],> 100 µM
same,TGI,[39],> 100 µM
same,TGI,[40],> 100 µM
same,TGI,[41],> 100 µM
same,TGI,[42],> 100 µM
same,TGI,[43],> 100 µM
same,TGI,[44],> 100 µM
same,TGI,[45],> 100 µM
same,TGI,[46],> 100 µM
same,TGI,[47],> 100 µM
same,TGI,[48],94.1 µM
same,TGI,[49],> 100 µM
same,TGI,[50],> 100 µM
Oc1ccc2ccccc2c1N=Nc1ccc(F)cc1,TGI,[51],> 100 µM
same,TGI,[1],> 100 µM
same,TGI,[2],> 100 µM
same,TGI,[3],> 100 µM
same,TGI,[4],> 100 µM
same,TGI,[5],> 100 µM
same,TGI,[6],> 100 µM
same,TGI,[7],> 100 µM
same,TGI,[9],> 100 µM
same,TGI,[52],> 100 µM
same,TGI,[10],> 100 µM
same,TGI,[11],> 100 µM
same,TGI,[12],> 100 µM
same,TGI,[13],> 100 µM
same,TGI,[14],> 100 µM
same,TGI,[15],> 100 µM
same,TGI,[16],> 100 µM
same,TGI,[17],> 100 µM
same,TGI,[18],> 100 µM
same,TGI,[19],> 100 µM
same,TGI,[21],> 100 µM
same,TGI,[22],> 100 µM
same,TGI,[23],> 100 µM
same,TGI,[24],> 100 µM
same,TGI,[25],> 100 µM
same,TGI,[26],> 100 µM
same,TGI,[27],> 100 µM
same,TGI,[28],> 100 µM
same,TGI,[29],> 100 µM
same,TGI,[32],> 100 µM
same,TGI,[33],> 100 µM
same,TGI,[34],> 100 µM
same,TGI,[35],> 100 µM
same,TGI,[53],> 100 µM
same,TGI,[36],> 100 µM
same,TGI,[37],> 100 µM
same,TGI,[38],> 100 µM
same,TGI,[39],> 100 µM
same,TGI,[40],> 100 µM
same,TGI,[41],> 100 µM
same,TGI,[42],> 100 µM
same,TGI,[43],> 100 µM
same,TGI,[44],> 100 µM
same,TGI,[45],> 100 µM
same,TGI,[46],> 100 µM
same,TGI,[54],> 100 µM
same,TGI,[47],> 100 µM
same,TGI,[55],> 100 µM
same,TGI,[56],> 100 µM
same,TGI,[48],> 100 µM
same,TGI,[49],> 100 µM
same,TGI,[50],> 100 µM
O=C(NC1CCCCCC1)C1C(=O)N(C2CCCCCC2)C(=O)/C1=N\O (configuration not stated),TGI,[51],> 100 µM
same,TGI,[1],> 100 µM
same,TGI,[2],48.6 µM
same,TGI,[3],40.2 µM
same,TGI,[4],87.2 µM
same,TGI,[5],> 100 µM
same,TGI,[6],97.5 µM
same,TGI,[7],84.5 µM
same,TGI,[8],> 100 µM
same,TGI,[9],> 100 µM
same,TGI,[52],49 µM
same,TGI,[10],93.1 µM
same,TGI,[11],> 100 µM
same,TGI,[12],> 100 µM
same,TGI,[13],> 100 µM
same,TGI,[14],36.5 µM
same,TGI,[15],37.6 µM
same,TGI,[16],94.2 µM
same,TGI,[17],68.5 µM
same,TGI,[18],34.9 µM
same,TGI,[19],> 100 µM
same,TGI,[20],> 100 µM
same,TGI,[21],> 100 µM
same,TGI,[22],61.3 µM
same,TGI,[24],> 100 µM
same,TGI,[25],> 100 µM
same,TGI,[26],31.2 µM
same,TGI,[27],54 µM
same,TGI,[28],57.3 µM
same,TGI,[29],40.3 µM
same,TGI,[30],> 100 µM
same,TGI,[31],> 100 µM
same,TGI,[32],> 100 µM
same,TGI,[33],> 100 µM
same,TGI,[34],87 µM
same,TGI,[35],75.6 µM
same,TGI,[57],> 100 µM
same,TGI,[53],46.1 µM
same,TGI,[36],> 100 µM
same,TGI,[37],> 100 µM
same,TGI,[38],80.4 µM
same,TGI,[39],> 100 µM
same,TGI,[40],31.8 µM
same,TGI,[41],45 µM
same,TGI,[42],91.9 µM
same,TGI,[43],> 100 µM
same,TGI,[44],> 100 µM
same,TGI,[45],> 100 µM
same,TGI,[46],> 100 µM
same,TGI,[54],47.8 µM
same,TGI,[47],> 100 µM
same,TGI,[55],48.2 µM
same,TGI,[56],> 100 µM
same,TGI,[48],94.3 µM
same,TGI,[49],> 100 µM
same,TGI,[50],83.3 µM
CC#CC(=O)Nc1ccccc1CC(c1c[nH]c2ccccc12)c1c[nH]c2ccccc12,TGI,[1],29.8 µM
same,TGI,[2],28.3 µM
same,TGI,[3],32.7 µM
same,TGI,[4],39.4 µM
same,TGI,[5],57.5 µM
same,TGI,[6],25.4 µM
same,TGI,[7],29.9 µM
same,TGI,[8],36.3 µM
same,TGI,[9],38 µM
same,TGI,[10],38.8 µM
same,TGI,[11],39.2 µM
same,TGI,[12],33.8 µM
same,TGI,[13],58.9 µM
same,TGI,[14],35.9 µM
same,TGI,[15],49.6 µM
same,TGI,[16],42.5 µM
same,TGI,[17],32.3 µM
same,TGI,[19],45.6 µM
same,TGI,[20],32.6 µM
same,TGI,[22],37.2 µM
same,TGI,[23],32.7 µM
same,TGI,[24],76.7 µM
same,TGI,[25],29.7 µM
same,TGI,[26],29.7 µM
same,TGI,[28],44.6 µM
same,TGI,[29],34.4 µM
same,TGI,[30],57.4 µM
same,TGI,[31],54.7 µM
same,TGI,[33],53.6 µM
same,TGI,[34],29.9 µM
same,TGI,[35],31.2 µM
same,TGI,[57],46.1 µM
same,TGI,[36],36.2 µM
same,TGI,[37],58.3 µM
same,TGI,[39],59.3 µM
same,TGI,[42],38.8 µM
same,TGI,[43],43 µM
same,TGI,[45],32.8 µM
same,TGI,[46],59 µM
same,TGI,[54],32.1 µM
same,TGI,[47],30 µM
same,TGI,[48],92.3 µM
same,TGI,[49],39.2 µM
same,TGI,[50],58.1 µM
